Data published in ChEMBL document CHEMBL4052747 (Bioorg Med Chem Lett, 2017).
Structures can show the parent of a compound that is named as a salt. Activity calls are given as the source filed them.

Legend:
[1] = biological target: T1, Kappa-type opioid receptor (Homo sapiens, UniProt P41145); assay: Agonist activity at human kappa opioid receptor expressed in CHO-K1 cells assessed as inhibition of forskolin-induced cAMP accumulation by TR-FRET assay; assay type: functional, cell-based
Mu-type opioid receptor [2] = biological target: T2, Mu-type opioid receptor (Homo sapiens, UniProt P35372); assay: Agonist activity at human mu opioid receptor expressed in CHO-dhfr(-) cells assessed as inhibition of forskolin-induced cAMP accumulation by TR-FRET assay; assay type: functional, cell-based
Mu-type opioid receptor [3] = biological target: T2, Mu-type opioid receptor; assay: Agonist activity at mu opioid receptor (unknown origin)
Homo sapiens = species: Homo sapiens; assay: Selectivity for human kappa opioid receptor over human mu opioid receptor
[4] = biological target: T1, Kappa-type opioid receptor; assay: Agonist activity at human kappa opioid receptor
Rattus norvegicus = assay: Anti-allodynic activity in rat model of partial sciatic nerve ligation-induced allodynia assessed as effect on withdrawal threshold at 3 and 5 mg/kg, iv dosed 7 days after ligation and measured 30 mins post dose by up-down method with von Frey filaments assay; assay type: functional, organism-based
Mus musculus = assay: Anti-pruritic activity in mouse assessed as reduction in substance P-induced scratching behavior at 3 mg/kg, ip dosed 15 mins before substance P injection and measured for 30 mins post substance P challenge by MicroAct based method; assay type: functional, organism-based

T2 sequence (P35372 whole entry): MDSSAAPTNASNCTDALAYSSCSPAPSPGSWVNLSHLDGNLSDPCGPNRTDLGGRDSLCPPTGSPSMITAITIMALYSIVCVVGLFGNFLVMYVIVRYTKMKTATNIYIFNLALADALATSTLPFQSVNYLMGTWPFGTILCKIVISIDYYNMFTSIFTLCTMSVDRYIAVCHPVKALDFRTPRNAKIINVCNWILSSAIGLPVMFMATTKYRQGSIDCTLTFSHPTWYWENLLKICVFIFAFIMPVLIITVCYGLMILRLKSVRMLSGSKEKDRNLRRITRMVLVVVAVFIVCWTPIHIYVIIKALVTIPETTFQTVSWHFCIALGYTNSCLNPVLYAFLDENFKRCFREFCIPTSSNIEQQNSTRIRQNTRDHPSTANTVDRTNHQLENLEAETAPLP
T1 sequence (P41145 whole entry): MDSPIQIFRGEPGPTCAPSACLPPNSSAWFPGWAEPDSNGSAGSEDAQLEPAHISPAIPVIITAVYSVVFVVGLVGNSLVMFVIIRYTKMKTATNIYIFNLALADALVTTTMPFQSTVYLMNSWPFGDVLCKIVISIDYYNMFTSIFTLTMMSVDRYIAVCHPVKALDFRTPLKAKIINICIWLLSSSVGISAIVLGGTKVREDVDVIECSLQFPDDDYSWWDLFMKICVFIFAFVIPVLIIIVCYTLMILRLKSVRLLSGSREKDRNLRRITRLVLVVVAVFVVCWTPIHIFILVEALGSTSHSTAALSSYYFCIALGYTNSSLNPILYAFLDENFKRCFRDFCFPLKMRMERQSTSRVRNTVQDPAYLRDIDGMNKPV

SMILES	EC50 [1] [nM]	Emax [1] [%]	EC50 (Mu-type opioid receptor [2]) [nM]	Emax (Mu-type opioid receptor [2]) [%]	EC50 (Mu-type opioid receptor [3]) [nM]	Selectivity ratio (Homo sapiens)	EC50 [4] [nM]	Activity (Rattus norvegicus)	Activity (Mus musculus)
CN(C(=O)C#Cc1ccccc1)[C@@H]1CC[C@@]2(O)[C@H]3[C@@H](O)c4ccc(O)c5c4[C@@]2(CCN3CC2CC2)[C@H]1O5	0.0799	102	904	95					
CN(C(=O)c1ccccc1)[C@@H]1CC[C@@]2(O)[C@H]3[C@@H](O)c4ccc(O)c5c4[C@@]2(CCN3CC2CC2)[C@H]1O5	> 100	23	> 30000	44					
CN(C(=O)/C=C/c1cccnc1)[C@@H]1CC[C@@]2(O)[C@H]3[C@@H](O)c4ccc(O)c5c4[C@@]2(CCN3CC2CC2)[C@H]1O5	0.291	101	3760	86					
CN(C(=O)COc1ccccc1)[C@@H]1CC[C@@]2(O)[C@H]3[C@@H](O)c4ccc(O)c5c4[C@@]2(CCN3CC2CC2)[C@H]1O5	5.04	97	> 30000	17					
CN(C(=O)/C=C/c1ccoc1)[C@@H]1CC[C@@]2(O)[C@H]3Cc4ccc(O)c5c4[C@@]2(CCN3CC2CC2)[C@H]1O5 [NALFURAFINE HYDROCHLORIDE]					1.7				
CN(C(=O)/C=C/c1ccco1)[C@@H]1CC[C@@]2(O)[C@H]3[C@@H](O)c4ccc(O)c5c4[C@@]2(CCN3CC2CC2)[C@H]1O5	0.122	102	14200	55					
CN(C(=O)/C=C/c1cccs1)[C@@H]1CC[C@@]2(O)[C@H]3[C@@H](O)c4ccc(O)c5c4[C@@]2(CCN3CC2CC2)[C@H]1O5	0.00466	101	4870	58					
CN(C(=O)/C=C/c1ccccn1)[C@@H]1CC[C@@]2(O)[C@H]3[C@@H](O)c4ccc(O)c5c4[C@@]2(CCN3CC2CC2)[C@H]1O5	0.0283	99	2880	89					
CN(C(=O)CCCc1ccccc1)[C@@H]1CC[C@@]2(O)[C@H]3[C@@H](O)c4ccc(O)c5c4[C@@]2(CCN3CC2CC2)[C@H]1O5	7.51	96	12900	99					
CN(C(=O)/C=C/c1ccncc1)[C@@H]1CC[C@@]2(O)[C@H]3[C@@H](O)c4ccc(O)c5c4[C@@]2(CCN3CC2CC2)[C@H]1O5	0.0257	99	12100	62					
CN(C(=O)CCc1ccccc1)[C@@H]1CC[C@@]2(O)[C@H]3[C@@H](O)c4ccc(O)c5c4[C@@]2(CCN3CC2CC2)[C@H]1O5	1.04	100	18300	57					
CN(C(=O)/C=C/c1ccccc1)[C@@H]1CC[C@@]2(O)[C@H]3[C@@H](O)c4ccc(O)c5c4[C@@]2(CCN3CC2CC2)[C@H]1O5	0.0222	101	209	107					
CN(C(=O)Cc1ccccc1)[C@@H]1CC[C@@]2(O)[C@H]3[C@@H](O)c4ccc(O)c5c4[C@@]2(CCN3CC2CC2)[C@H]1O5	> 100	18	> 30000	43					
CN(C(=O)/C=C/c1ccc(O)cc1)[C@@H]1CC[C@@]2(O)[C@H]3[C@@H](O)c4ccc(O)c5c4[C@@]2(CCN3CC2CC2)[C@H]1O5	0.0953	98	> 30000	49					
CN(C(=O)/C=C/c1ccsc1)[C@@H]1CC[C@@]2(O)[C@H]3[C@@H](O)c4ccc(O)c5c4[C@@]2(CCN3CC2CC2)[C@H]1O5	0.028	101	110	96					
CN(C(=O)/C=C/c1ccc(Cl)cc1)[C@@H]1CC[C@@]2(O)[C@H]3[C@@H](O)c4ccc(O)c5c4[C@@]2(CCN3CC2CC2)[C@H]1O5	0.0288	99	48.8	92					
Cc1ccc(/C=C/C(=O)N(C)[C@@H]2CC[C@@]3(O)[C@H]4[C@@H](O)c5ccc(O)c6c5[C@@]3(CCN4CC3CC3)[C@H]2O6)cc1	0.0494	101	308	72					
CN(C(=O)/C=C/c1ccoc1)[C@@H]1CC[C@@]2(O)[C@H]3[C@@H](O)c4ccc(O)c5c4[C@@]2(CCN3CC2CC2)[C@H]1O5	0.025	99	1100	88		44000	0.025	Active	Active
